Measurements as given in ChEMBL document CHEMBL1130744, “Potent and selective inhibitors of the proteasome: dipeptidyl boronic acids” (Bioorg Med Chem Lett, 1998).
pKi: −log10 of the molar value. Non-standard residues stand in square brackets, D forms with d. Residues, ends and D or L forms follow the SMILES beside them. *: point of attachment. 1Nal = N[C@@H](Cc1cccc2ccccc12)C(=O)O; 2Nal = N[C@@H](Cc1ccc2ccccc2c1)C(=O)O; Cbz = O=C(OCc1ccccc1)*; CF3 = FC(F)(F)*; CH2Cl = ClC*

The compounds below were run against Cathepsin B (Homo sapiens, UniProt P07858) (assay: Inhibitory activity against Cathepsin B).
`CC(C)C[C@H](NC(=O)[C@H](CC(C)C)NC(=O)[C@H](CC(C)C)NC(=O)OCc1ccccc1)B(O)O` showed a pKi of 8.21.

The compounds below were run against T1, Cathepsin G (Homo sapiens, UniProt P08311) (assay: Inhibitory activity against human cathepsin G).
T1 sequence (P08311 whole entry): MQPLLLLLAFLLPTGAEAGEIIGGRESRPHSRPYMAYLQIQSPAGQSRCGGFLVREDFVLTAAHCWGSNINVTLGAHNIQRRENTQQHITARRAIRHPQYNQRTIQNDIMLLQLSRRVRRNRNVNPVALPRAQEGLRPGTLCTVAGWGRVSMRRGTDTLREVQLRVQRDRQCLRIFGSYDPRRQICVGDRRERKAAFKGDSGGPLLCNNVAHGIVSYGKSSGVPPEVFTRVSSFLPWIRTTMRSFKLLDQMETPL
`CC(C)C[C@H](NC(=O)[C@H](Cc1ccccc1)NC(=O)c1cnccn1)B(O)O` [BORTEZOMIB] gave a pKi of 6.20.

What follows are compounds tested against Chymotrypsinogen B (Homo sapiens, UniProt P17538) (assay: Inhibitory activity against human Chymotrypsinogen).
Chain of Chymotrypsinogen B (P17538 34-164 limits assumed, other chains not shown): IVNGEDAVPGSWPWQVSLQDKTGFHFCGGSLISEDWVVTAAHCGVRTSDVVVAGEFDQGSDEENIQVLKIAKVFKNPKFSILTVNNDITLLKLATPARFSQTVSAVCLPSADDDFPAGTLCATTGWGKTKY
Chain of Chymotrypsinogen B (P17538 167-263 limits assumed, other chains not shown): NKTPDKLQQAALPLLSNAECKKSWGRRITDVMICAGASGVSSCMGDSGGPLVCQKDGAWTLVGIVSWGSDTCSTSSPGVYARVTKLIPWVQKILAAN
Compound `CC(C)C[C@H](NC(=O)[C@H](Cc1ccccc1)NC(=O)c1cnccn1)B(O)O` [BORTEZOMIB] has a pKi of 6.49.

The compounds below were run against T2, Neutrophil elastase (Homo sapiens, UniProt P08246) (assay: Inhibitory activity against human leukocyte elastase).
T2 sequence (P08246 whole entry): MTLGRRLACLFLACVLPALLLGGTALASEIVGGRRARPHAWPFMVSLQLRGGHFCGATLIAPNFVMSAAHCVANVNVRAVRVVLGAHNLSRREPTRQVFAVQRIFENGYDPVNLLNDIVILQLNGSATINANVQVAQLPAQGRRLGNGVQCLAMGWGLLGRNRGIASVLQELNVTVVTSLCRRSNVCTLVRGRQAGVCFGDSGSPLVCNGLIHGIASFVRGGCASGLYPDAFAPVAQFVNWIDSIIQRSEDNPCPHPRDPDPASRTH
Work on `CC(C)C[C@H](NC(=O)[C@H](Cc1ccccc1)NC(=O)c1cnccn1)B(O)O` [BORTEZOMIB] yielded a pKi of 5.64.

These compounds were tested against Proteasome (assay: Inhibitory activity against 20S Proteasome).
Assay type: subcellular, Oryctolagus cuniculus
`CC(C)C[C@H](NC(=O)OCc1ccccc1)C(=O)N[C@@H](CC(C)C)C(=O)N[C@H](C=O)Cc1ccc2ccccc2c1` (Cbz-Leu-Leu-[2Nal]-aldehyde) gave a pKi of 7.60. For `CC(C)C[C@@H](C=O)NC(=O)[C@H](CC(C)C)NC(=O)[C@H](CC(C)C)NC(=O)OCc1ccccc1` [MG-132] (Cbz-Leu-Leu-Leu-aldehyde), the pKi was 8.40. Work on `CCOC(=O)C(=O)C(=O)[C@H](CC(C)C)NC(=O)[C@H](CC(C)C)NC(=O)[C@H](CC(C)C)NC(=O)OCc1ccccc1` yielded a pKi of 7.35. In the case of `CC(C)C[C@@H](C=O)NC(=O)[C@H](CC(C)C)NC(=O)[C@H](Cc1ccc2ccccc2c1)NC(=O)OCc1ccccc1` (Cbz-[2Nal]-Leu-Leu-aldehyde), the pKi was 9.62. For `CC(C)C[C@H](NC(=O)[C@H](Cc1cccc2ccccc12)NC(=O)c1cnccn1)B(O)O`, the pKi was 9.74. For `CC(C)C[C@H](NC(=O)OCc1ccccc1)C(=O)N[C@@H](CC(C)C)C(=O)N[C@@H](CC(C)C)C(=O)C(F)(F)F` (Cbz-Leu-Leu-Leu-CF3), the pKi was 5.85. `CC[C@@H](C)[C@@H](C=O)NC(=O)[C@H](CC(C)C)NC(=O)[C@H](CC(C)C)NC(=O)OCc1ccccc1` showed a pKi of 6.89. `CC(C)C[C@H](NC(=O)[C@H](CC(C)C)NC(=O)[C@H](CC(C)C)NC(=O)OCc1ccccc1)C(=O)CCl` (Cbz-Leu-Leu-Leu-CH2Cl) gave a pKi of 4.66. With `CC(C)C[C@H](NC(=O)OCc1ccccc1)C(=O)N[C@@H](CC(C)C)C(=O)NCC=O` (Cbz-Leu-Leu-Gly-aldehyde) the pKi was 5.42. Work on `CC(C)C[C@H](NC(=O)OCc1ccccc1)C(=O)N[C@@H](CC(C)C)C(=O)N[C@@H](C)C=O` (Cbz-Leu-Leu-Ala-aldehyde) yielded a pKi of 6.68. `CC(C)C[C@@H](C=O)NC(=O)[C@H](Cc1ccccc1)NC(=O)c1cnccn1` was tested, and the pKi was 5.80. `CC(C)C[C@@H](C=O)NC(=O)[C@H](Cc1cccc2ccccc12)NC(=O)[C@H](Cc1ccc2ccccc2c1)NC(=O)OCc1ccccc1` (Cbz-[2Nal]-[1Nal]-Leu-aldehyde) was tested, and the pKi was 10.82. With `CC(C)C[C@H](NC(=O)OCc1ccccc1)C(=O)N[C@@H](CC(C)C)C(=O)N[C@@H](CC(C)C)C(=O)c1nc2ccccc2o1` the pKi was 6.67. Compound `CC(C)C[C@@H](C=O)NC(=O)[C@H](Cc1cccc2ccccc12)NC(=O)c1cnccn1` has a pKi of 7.01.

These compounds were tested against Prothrombin (Homo sapiens, UniProt P00734) (assay: Inhibitory activity against thrombin).
For `CC(C)C[C@H](NC(=O)[C@H](Cc1ccccc1)NC(=O)c1cnccn1)B(O)O` [BORTEZOMIB], the pKi was 4.89.
